The record followed here is patent US20120010075A1 (priority 2009, published 2012).

Series [1] concerns Leptosphaeria nodorum (LEPTNO). Description: In vitro fungitoxicity of hydrazones with and without copper towards Leptosphaeria nodorum (Example 26). In kind it is cell-based. The note with it: test compound Concn. 0.05 μg/mL, 72 h at 25° C.; for inhibition of growth at 0.05 µg/mL: Parastagonospora nodorum, 72 h, copper-minus medium, read-out: LEPTNO % Inhn. Minus Copper Observed; for LEPTNO % Inhn. Plus Copper Observed: copper-plus medium (CuCl2 10 μM).

In a further series the test system is Phytophthora infestans. It counts as in vivo, Phytophthora infestans on tomato. The conditions noted are these: hydrazone 50 ppm with 50 μM CuCl2.2H2O, applied 24 h before inoculation; assessed 7 days after inoculation; tomato late blight.

As usually defined, the melting point is the temperature, or range, at which the solid turns liquid. In the case of `O=C(N/N=C/c1cc(C(F)(F)F)cc(C(F)(F)F)c1O)c1cccc([N+](=O)[O-])c1` [Example 338], the melting point fell in the range of 256 to 258 °C. In series [1], the inhibition of growth at 0.05 µg/mL was 9% and the “LEPTNO % Inhn. Plus Copper Observed” value came out at 98.1%. In addition, the “TLB % Control” value in the series with Phytophthora infestans came to 96.0%.

Regarding `O=C(N/N=C/c1cc(C(F)(F)F)cc(C(F)(F)F)c1O)c1ccc([N+](=O)[O-])cc1` [Example 339], the melting point lay within 244 to 247 °C. In series [1], the inhibition of growth at 0.05 µg/mL worked out at 1.5% and the “LEPTNO % Inhn. Plus Copper Observed” value came out at 95.4%. Besides, in the series with Phytophthora infestans, the “TLB % Control” value came to 100.0%.

In turn, `O=C(N/N=C/c1cc(C(F)(F)F)cc(C(F)(F)F)c1O)c1ccccc1O` [Example 340] yielded a melting point of 231 to 235 °C. Besides, in series [1], the inhibition of growth at 0.05 µg/mL is 18% and the “LEPTNO % Inhn. Plus Copper Observed” value turned out to be 96.2%. Also, the “TLB % Control” value in the series on Phytophthora infestans is recorded as 95.0%.

Molecule `O=C(N/N=C/c1cc(C(F)(F)F)cc(C(F)(F)F)c1O)c1ccccc1C(F)(F)F` [Example 341] had a melting point of 210 to 214 °C. Besides, in series [1], the inhibition of growth at 0.05 µg/mL worked out at 1.2% and the “LEPTNO % Inhn. Plus Copper Observed” value is 88.9%. In the series on Phytophthora infestans, the “TLB % Control” value came out at 63.0%.

For `Cc1ccc(C(=O)N/N=C/c2cc(C(F)(F)F)cc(C(F)(F)F)c2O)c(O)c1` [Example 342], the melting point was in the range of 251 to 254 °C. In addition, in series [1], the inhibition of growth at 0.05 µg/mL stood at 9.1% and the “LEPTNO % Inhn. Plus Copper Observed” value is listed as 98.3%. Also, the “TLB % Control” value in the series with Phytophthora infestans worked out at 86.0%.

In the case of `Cc1cccc(C(=O)N/N=C/c2cccc(C(F)(F)F)c2O)c1` [Example 343], the melting point lay in the range of 188 to 190 °C. Also, in series [1], the inhibition of growth at 0.05 µg/mL amounted to 2.8% and the “LEPTNO % Inhn. Plus Copper Observed” value was 95.4%. In addition, the “TLB % Control” value in the series with Phytophthora infestans was determined as 97.0%.

Molecule `Cc1ccc(C(=O)N/N=C/c2cccc(C(F)(F)F)c2O)cc1` [Example 344] showed a melting point of 239 to 241 °C. In series [1], the inhibition of growth at 0.05 µg/mL was 31.5% and the “LEPTNO % Inhn. Plus Copper Observed” value amounted to 91.8%. In the series with Phytophthora infestans, the “TLB % Control” value turned out to be 100.0%.

The molecule `O=C(N/N=C/c1cccc(C(F)(F)F)c1O)c1cccc(F)c1` [Example 345] returned a melting point of 176 to 180 °C. For the same molecule, in series [1], the inhibition of growth at 0.05 µg/mL is 18.8% and the “LEPTNO % Inhn. Plus Copper Observed” value worked out at 97.9%. Moreover, in the series on Phytophthora infestans, the “TLB % Control” value is reported as 97.0%.

For `O=C(N/N=C/c1cccc(C(F)(F)F)c1O)c1ccc(F)cc1` [Example 346], the melting point fell in the range of 187 to 188 °C. Besides, in series [1], the inhibition of growth at 0.05 µg/mL came to 30% and the “LEPTNO % Inhn. Plus Copper Observed” value came out at 96.7%. Besides, the “TLB % Control” value in the series on Phytophthora infestans was determined as 96.0%.

`O=C(N/N=C/c1cccc(C(F)(F)F)c1O)c1cccc(Cl)c1` [Example 347] yielded a melting point of 185 to 187 °C. In series [1], the inhibition of growth at 0.05 µg/mL was determined as 13.8% and the “LEPTNO % Inhn. Plus Copper Observed” value was found to be 98.4%. Moreover, the “TLB % Control” value with Phytophthora infestans is reported as 97.0%.

The molecule `O=C(N/N=C/c1cccc(C(F)(F)F)c1O)c1cccc([N+](=O)[O-])c1` [Example 349] yielded a melting point of 215 to 217 °C. For the same molecule, in series [1], the inhibition of growth at 0.05 µg/mL stood at 17.4% and the “LEPTNO % Inhn. Plus Copper Observed” value is 96.9%. In the series on Phytophthora infestans, the “TLB % Control” value is recorded as 97.0%.

As for `O=C(N/N=C/c1cccc(C(F)(F)F)c1O)c1ccc([N+](=O)[O-])cc1` [Example 350], the melting point was 253 to 255 °C. Moreover, in series [1], the inhibition of growth at 0.05 µg/mL amounted to 11.3% and the “LEPTNO % Inhn. Plus Copper Observed” value was 94.9%. Besides, the “TLB % Control” value in the series with Phytophthora infestans stood at 97.0%.

As to `Cc1ccc(C(=O)N/N=C/c2cccc(C(F)(F)F)c2O)c(O)c1` [Example 352], the melting point was in the range of 248 to 253 °C. In series [1], the inhibition of growth at 0.05 µg/mL came to 8.8% and the “LEPTNO % Inhn. Plus Copper Observed” value was determined as 98.4%. Besides, in the series with Phytophthora infestans, the “TLB % Control” value amounted to 100.0%.

In turn, `O=C(N/N=C/c1cccc(C(F)(F)F)c1O)c1ccccc1C(F)(F)F` [Example 353] came in with a melting point of 169 to 171 °C. Also, in series [1], the inhibition of growth at 0.05 µg/mL was 0% and the “LEPTNO % Inhn. Plus Copper Observed” value is recorded as 94.8%. Besides, the “TLB % Control” value in the series with Phytophthora infestans was 81.0%.

The molecule `Cc1cccc(C(=O)N/N=C/c2ccc(Cl)c(Cl)c2O)c1` [Example 354] yielded a melting point of 212 to 214 °C. For the same molecule, in series [1], the inhibition of growth at 0.05 µg/mL turned out to be 18.4% and the “LEPTNO % Inhn. Plus Copper Observed” value was found to be 95.4%. Besides, in the series with Phytophthora infestans, the “TLB % Control” value stood at 98.0%.

`Cc1ccc(C(=O)N/N=C/c2ccc(Cl)c(Cl)c2O)cc1` [Example 355] yielded a melting point of 254 to 256 °C. Besides, in series [1], the inhibition of growth at 0.05 µg/mL amounted to 19.6% and the “LEPTNO % Inhn. Plus Copper Observed” value is reported as 89.8%. Besides, in the series with Phytophthora infestans, the “TLB % Control” value is on record as 87.0%.

`O=C(N/N=C/c1ccc(Cl)c(Cl)c1O)c1cccc(F)c1` [Example 356] returned a melting point of 215 to 218 °C. Also, in series [1], the inhibition of growth at 0.05 µg/mL amounted to 18.6% and the “LEPTNO % Inhn. Plus Copper Observed” value is recorded as 98.0%. Moreover, in the series on Phytophthora infestans, the “TLB % Control” value is reported as 93.0%.

With `O=C(N/N=C/c1ccc(Cl)c(Cl)c1O)c1ccc(F)cc1` [Example 357], the melting point lay within 244 to 246 °C. In addition, in series [1], the inhibition of growth at 0.05 µg/mL stood at 56.7% and the “LEPTNO % Inhn. Plus Copper Observed” value is reported as 97.4%. Besides, in the series with Phytophthora infestans, the “TLB % Control” value worked out at 93.0%.

For the molecule `O=C(N/N=C/c1ccc(Cl)c(Cl)c1O)c1cccc(Cl)c1` [Example 358], the melting point was 219 to 222 °C. Moreover, in series [1], the inhibition of growth at 0.05 µg/mL was 12.7% and the “LEPTNO % Inhn. Plus Copper Observed” value came out at 98.3%. For the same molecule, the “TLB % Control” value in the series with Phytophthora infestans is 100.0%.

As for `O=C(N/N=C/c1ccc(Cl)c(Cl)c1O)c1cccc([N+](=O)[O-])c1` [Example 360], the melting point fell in the range of 269 to 271 °C. For the same molecule, in series [1], the inhibition of growth at 0.05 µg/mL came to 17.6% and the “LEPTNO % Inhn. Plus Copper Observed” value is listed as 96.9%. In addition, the “TLB % Control” value with Phytophthora infestans stood at 97.0%.

Regarding `O=C(N/N=C/c1ccc(Cl)c(Cl)c1O)c1ccc([N+](=O)[O-])cc1` [Example 361], the melting point fell in the range of 237 to 243 °C. In series [1], the inhibition of growth at 0.05 µg/mL was 3.3% and the “LEPTNO % Inhn. Plus Copper Observed” value turned out to be 96.4%. Further, the “TLB % Control” value in the series on Phytophthora infestans is 97.0%.

For `O=C(N/N=C/c1ccc(Cl)c(Cl)c1O)c1ccccc1O` [Example 362], the melting point is 280 to 282 °C. In addition, in series [1], the inhibition of growth at 0.05 µg/mL was found to be 11.1% and the “LEPTNO % Inhn. Plus Copper Observed” value was 97.2%. In addition, in the series with Phytophthora infestans, the “TLB % Control” value is 97.0%.

Turning to `O=C(N/N=C/c1ccc(Cl)c(Cl)c1O)c1ccccc1C(F)(F)F` [Example 363], the melting point fell in the range of 209 to 213 °C. Besides, in series [1], the inhibition of growth at 0.05 µg/mL was found to be 4.3% and the “LEPTNO % Inhn. Plus Copper Observed” value came out at 94.7%. Besides, the “TLB % Control” value with Phytophthora infestans is given as 92.0%.

On to `Cc1cccc(C(=O)N/N=C/c2c(Cl)ccc(Cl)c2O)c1` [Example 365], for which the melting point was in the range of 214 to 216 °C. Besides, in series [1], the inhibition of growth at 0.05 µg/mL turned out to be 13.8% and the “LEPTNO % Inhn. Plus Copper Observed” value is 95.6%. Moreover, in the series with Phytophthora infestans, the “TLB % Control” value was 95.0%.

The molecule `Cc1ccc(C(=O)N/N=C/c2c(Cl)ccc(Cl)c2O)cc1` [Example 366] had a melting point of 267 to 269 °C. In series [1], the inhibition of growth at 0.05 µg/mL is 14.2% and the “LEPTNO % Inhn. Plus Copper Observed” value came to 96.6%. Moreover, the “TLB % Control” value with Phytophthora infestans came to 100.0%.
